Laboratory results reported in patent US4354039A, “Chlorocitric acids” (Hoffmann-La Roche Inc., priority 1981, dated 1982).

Columns and labels:
Type in all cases: in vivo, Charles River female rats
[1] = Body weight and food intake in meal-fed rats, oral, 17 day study (Example 21); details: for CBWG, cumulative body weight gain / CFC, cumulative food consumption / FBW, final body weight: 17 days; for IBW, initial body weight: baseline
Protocol: (§1) Two month old Charles River female rats (Charles River Breeding Laboratories, Wilmington, Mass.) were individually housed in wire-bottomedcages in a temperature-regulated (22° C.) light-controlled room (12 hr light, 6 a.m. to 6 p.m. and 12 hr dark, 6 p.m. to 6 a.m.). […] On the 8th day, the animals were administered water or (-)-threo-chlorocitric acid at the indicated concentration by oral intubation 30 min before the 3 hr meal. Treatment was continued for 17 days. Food cups were weighed immediately after the meal. The amount of body weight gained and food consumed during the period was determined.

[2] = Body composition of meal-fed rats, 16 day study (Example 20); details: in words
Protocol: Two month old Charles River female rats (Charles River Breeding Laboratories, Wilmington, Mass.) were individually housed in wire-bottomedcages in a temperature-regulated (22° C.) light-controlled room (12 hr light, 6 a.m. to 6 p.m. and 12 hr dark, 6 p.m. to 6 a.m.). […] (1) control, (2) (-)-threo-chlorocitric acid (1.0 mmoles/kg, 227 mg/kg) administered by oral intubation 30 min before the 3 hr meal, and (3) (-)-threo-chlorocitric acid (1.1 mmoles/kg, 250 mg/kg as a dietary admixture for the 3 hr meal. Treatment was continued for 16 days. After 16 days of treatment, rats were killed by decapitation and blood was removed. […] C. Sullivan, et al, Am. J. Clinical Nutrition, 30 767 (1977). […] Total carcass lipid data are expressed in grams and percentages of carcass weight. An aliquot of saponified carcass extract was neutralized and total carcass nitrogen was determined using the Kjeldahl procedure described in "Hawks" Physiological Chemistry," B. L. Oser, ed., McGraw Book Co., New York, N.Y., 1965, page 1214. Carcass protein data are expressed in grams and percentages of carcass weight.

[3] = Total body fat in meal-fed rats, oral, 17 day study (Example 22); details: Chow, 17 days
Protocol: as §1, with “After 17 days” for “The amount”, “treatment, rats were killed by decapitation” for “body weight gained”, “blood” for “food consumed during the period”, “removed. […] C. Sullivan, et al, Am. J. Clinical Nutrition, 30 767 (1977). […] Total carcass and lipid data are expressed in grams and percentages of carcass weight.” for “determined.”

[4] = Chow, 0.25 mmoles (57 mg)/kg oral
[5] = Chow, 0.50 mmoles (114 mg)/kg oral
[6] = Chow, 1.00 mmoles (227 mg)/kg oral

## O=C(O)C[C@@](O)(C(=O)O)[C@@H](Cl)C(=O)O [(-)-threo-Chlorocitric acid]
[1]; [4]
  CBWG, cumulative body weight gain: -1 ± 4 g
  CFC, cumulative food consumption: 186 ± 9 g
  FBW, final body weight: 213 ± 7 g
  IBW, initial body weight: 214 ± 7 g
[1]; [5]
  CBWG, cumulative body weight gain: -32 ± 6 g
  CFC, cumulative food consumption: 165 ± 9 g
  FBW, final body weight: 177 ± 6 g
  IBW, initial body weight: 209 ± 5 g
[1]; [6]
  CBWG, cumulative body weight gain: -30 ± 7 g
  CFC, cumulative food consumption: 130 ± 13 g
  FBW, final body weight: 176 ± 11 g
  IBW, initial body weight: 207 ± 3 g
[1]; G-70 diet, 0.25 mmoles (57 mg)/kg oral
  IBW, initial body weight: 198 ± 4 g
[1]; G-70 diet, 0.50 mmoles (114 mg)/kg oral
  IBW, initial body weight: 195 ± 4 g
[1]; G-70 diet, 1.00 mmoles (227 mg)/kg oral
  IBW, initial body weight: 198 ± 3 g
[2]
  weight loss, carcass analysis: weight loss was due to reduction in body lipids
[3]; 0.25 mmoles (57 mg)/kg oral
  Carcass Lipid % carcass, % of control: 99 % of control
  Carcass Lipid total, % of control: 101 % of control
  Carcass Lipid, % carcass: 4.56 ± 0.42 % carcass
  Carcass Lipid, total: 9.64 ± 0.80 g
  Carcass Weight: 213 ± 4 g
[3]; 0.50 mmoles (114 mg)/kg oral
  Carcass Lipid % carcass, % of control: 58 % of control
  Carcass Lipid total, % of control: 50 % of control
  Carcass Lipid, % carcass: 2.70 ± 0.17 % carcass
  Carcass Lipid, total: 4.80 ± 0.48 g
  Carcass Weight: 173 ± 4 g
[3]; 1.00 mmoles (227 mg)/kg oral
  Carcass Lipid % carcass, % of control: 52 % of control
  Carcass Lipid total, % of control: 41 % of control
  Carcass Lipid, % carcass: 2.40 ± 0.22 % carcass
  Carcass Lipid, total: 3.92 ± 0.37 g
  Carcass Weight: 163 ± 7 g
